Assay results published in patent EP4678638A1, “NEW E3 UBIQUITIN LIGASE LIGAND, PROTEIN DEGRADATION AGENT AND USE THEREOF” (priority 2023, dated 2024).

What was measured:
[1] = target: T1, RSK1 (Homo sapiens, UniProt Q15418); assay: Western blot degradation of RSK1 (hPBMC); assay type: cell-based; settings: Table D8
T1 construct: evaluate the effects of the compounds of the present disclosure on the expression of target proteins in cells; endogenous in cells; host or cells: hPBMC
Outline: (§1)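 Quantification by ImageJ densitometry of Western blot bands: DC50 is the fitted concentration halving band intensity relative to DMSO. Percent remaining uses internal-control normalization, and degradation rate is its complement.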

[2] = target: T2, human Cereblon WT GST-tagged protein (Homo sapiens, UniProt Q96SW2); assay: CRBN binding, HTRF (CEREBLON BINDING kit); settings: Table II-2, CRBN binding screening, HTRF; for inhibition at 0.5 µM: read-out: Inhibition rate (%) at 0.5µM; for inhibition at 2 µM: read-out: Inhibition rate (%) at 2 µM
T2 construct: purchased CISBIO 64BDCRBNPEH
Outline: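 Competitive HTRF: GST-tagged human WT Cereblon mixed with compound, Thalidomide-Re tracer and GST Eu antibody, incubated 3 h at room temperature. Signals read at 620 and 665 nm.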

[3] = target: T3, RSK2 (Homo sapiens, UniProt P51812); assay: Western blot degradation of RSK2 (hPBMC); assay type: cell-based; settings: Table D8
T3 construct: evaluate the effects of the compounds of the present disclosure on the expression of target proteins in cells; endogenous in cells; host or cells: hPBMC
Outline: as §1

T2 sequence (Q96SW2 whole entry): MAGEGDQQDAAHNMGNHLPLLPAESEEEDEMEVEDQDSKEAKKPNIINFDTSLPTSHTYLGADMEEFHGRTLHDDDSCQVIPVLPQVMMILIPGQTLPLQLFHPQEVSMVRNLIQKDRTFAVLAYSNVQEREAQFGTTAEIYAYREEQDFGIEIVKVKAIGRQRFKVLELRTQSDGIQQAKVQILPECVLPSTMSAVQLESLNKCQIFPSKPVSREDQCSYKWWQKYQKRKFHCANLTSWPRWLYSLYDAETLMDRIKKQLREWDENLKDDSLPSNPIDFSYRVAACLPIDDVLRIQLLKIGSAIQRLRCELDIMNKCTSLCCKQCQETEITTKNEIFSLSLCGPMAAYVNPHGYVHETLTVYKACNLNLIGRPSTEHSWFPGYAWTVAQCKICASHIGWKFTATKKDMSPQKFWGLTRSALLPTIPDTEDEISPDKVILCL
T1 sequence (Q15418 whole entry): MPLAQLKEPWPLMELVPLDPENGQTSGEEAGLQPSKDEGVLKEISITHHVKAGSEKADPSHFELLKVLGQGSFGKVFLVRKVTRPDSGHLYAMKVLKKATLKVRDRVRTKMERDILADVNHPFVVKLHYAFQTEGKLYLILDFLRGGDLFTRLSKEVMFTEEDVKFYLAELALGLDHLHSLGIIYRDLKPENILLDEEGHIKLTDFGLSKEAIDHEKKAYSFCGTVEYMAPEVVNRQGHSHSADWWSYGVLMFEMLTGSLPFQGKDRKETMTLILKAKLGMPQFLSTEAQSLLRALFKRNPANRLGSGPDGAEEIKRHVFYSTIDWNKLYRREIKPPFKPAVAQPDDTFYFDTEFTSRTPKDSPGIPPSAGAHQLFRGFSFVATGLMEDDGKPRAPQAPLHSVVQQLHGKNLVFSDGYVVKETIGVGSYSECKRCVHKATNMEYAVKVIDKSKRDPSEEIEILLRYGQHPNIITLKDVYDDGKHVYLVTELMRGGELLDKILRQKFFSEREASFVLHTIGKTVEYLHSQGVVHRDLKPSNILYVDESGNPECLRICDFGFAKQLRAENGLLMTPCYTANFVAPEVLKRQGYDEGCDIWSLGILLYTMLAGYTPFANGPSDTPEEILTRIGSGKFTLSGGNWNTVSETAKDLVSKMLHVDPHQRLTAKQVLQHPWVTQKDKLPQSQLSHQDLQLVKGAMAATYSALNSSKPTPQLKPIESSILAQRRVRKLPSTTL
T3 sequence (P51812 whole entry): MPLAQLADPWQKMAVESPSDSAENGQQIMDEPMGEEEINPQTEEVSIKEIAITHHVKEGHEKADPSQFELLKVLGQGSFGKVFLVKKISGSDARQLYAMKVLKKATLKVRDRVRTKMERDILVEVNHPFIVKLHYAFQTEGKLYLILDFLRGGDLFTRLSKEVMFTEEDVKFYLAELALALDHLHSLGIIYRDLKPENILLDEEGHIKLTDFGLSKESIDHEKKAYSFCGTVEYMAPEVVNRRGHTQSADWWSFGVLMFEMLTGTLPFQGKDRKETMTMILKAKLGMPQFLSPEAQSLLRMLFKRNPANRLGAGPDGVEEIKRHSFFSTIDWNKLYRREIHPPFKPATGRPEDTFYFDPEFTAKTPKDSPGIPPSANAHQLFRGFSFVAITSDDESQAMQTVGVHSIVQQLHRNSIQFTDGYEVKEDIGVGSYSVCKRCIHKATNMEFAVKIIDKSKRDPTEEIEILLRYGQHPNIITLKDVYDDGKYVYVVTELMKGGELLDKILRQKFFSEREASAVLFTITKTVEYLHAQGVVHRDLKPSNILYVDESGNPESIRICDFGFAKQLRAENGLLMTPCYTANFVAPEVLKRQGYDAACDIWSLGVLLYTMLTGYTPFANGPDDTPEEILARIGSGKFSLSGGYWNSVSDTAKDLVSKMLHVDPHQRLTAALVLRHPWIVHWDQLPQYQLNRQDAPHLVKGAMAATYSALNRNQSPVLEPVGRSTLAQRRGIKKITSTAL

| Compound | Degradation of substrate protein RSK1 (substrate protein remaining %) [1] | inhibition at 0.5 µM [2] | inhibition at 2 µM [2] | Degradation of substrate protein RSK2 (substrate protein remaining %) [3] |
| --- | --- | --- | --- | --- |
| C[C@@H]1CNC(=O)c2cc3ccc(C(=O)Nc4cnn(Cc5ccc(NCc6ccnc(N7CCC(=O)NC7=O)c6)cc5)c4)nc3n21 [GT-07795, (R)-N-(1-(4-(((2-(2,4-dioxotetrahydropyrimidin-1(2H)-yl)pyridin-4-yl)methyl)amino)benzyl)-1H-pyrazol-4-yl)-9-methyl-6-oxo-6,7,8,9-tetrahydropyrido[3',2':4,5]pyrrolo[1,2-a]pyrazine-2-carboxamide] | A (A is defined as 0% ≤ substrate protein remaining % ≤ 80%) | 30 to 40% | 40 to 53% | B (B is defined as substrate protein remaining % > 80%) |
| C[C@@H]1CNC(=O)c2cc3ccc(C(=O)Nc4cnn(Cc5ccc(NCc6cncc(N7CCC(=O)NC7=O)c6)cc5)c4)nc3n21 [GT-07796, (R)-N-(1-(4-(((5-(2,4-dioxotetrahydropyrimidin-1(2H)-yl)pyridin-3-yl)methyl)amino)benzyl)-1H-pyrazol-4-yl)-9-methyl-6-oxo-6,7,8,9-tetrahydropyrido[3',2':4,5]pyrrolo[1,2-a]pyrazine-2-carboxamide] | A (A is defined as 0% ≤ substrate protein remaining % ≤ 80%) | 80 to 100% | 80 to 100% | B (B is defined as substrate protein remaining % > 80%) |
| C[C@@H]1CNC(=O)c2cc3ccc(C(=O)Nc4cnn(Cc5ccc(N6CCN(Cc7ccc(C8CCC(=O)NC8=O)cc7)CC6)cc5)c4)nc3n21 (stereo partly drawn) [GT-07926, (9R)-N-(1-(4-(4-(4-(2,6-dioxopiperidin-3-yl)benzyl)piperazin-1-yl)benzyl)-1H-pyrazol-4-yl)-9-methyl-6-oxo-6,7,8,9-tetrahydropyrido[3',2':4,5]pyrrolo[1,2-a]pyrazine-2-carboxamide] | A (A is defined as 0% ≤ substrate protein remaining % ≤ 80%) | 60 to 80% | 80 to 100% | B (B is defined as substrate protein remaining % > 80%) |
| C[C@@H]1CNC(=O)c2cc3ccc(C(=O)Nc4cnn(Cc5ccc(N6CCC(N(C)Cc7cc(C8CCC(=O)NC8=O)cnc7F)CC6)cc5)c4)nc3n21 (stereo partly drawn) [GT-07946, (9R)-N-(1-(4-(4-(((5-(2,6-dioxopiperidin-3-yl)-2-fluoropyridin-3-yl)methyl)(methyl)amino)piperidin-1-yl)benzyl)-1H-pyrazol-4-yl)-9-methyl-6-oxo-6,7,8,9-tetrahydropyrido[3',2':4,5]py rrolo[1,2-a]pyrazine-2-carboxamide] | A (A is defined as 0% ≤ substrate protein remaining % ≤ 80%) | 30 to 40% | 60 to 80% | A (A is defined as 0% ≤ substrate protein remaining % ≤ 80%) |
| C[C@@H]1CNC(=O)c2cc3ccc(C(=O)Nc4cnn(Cc5ccc(N6CCC(N7CCN(Cc8cccc(NC9CCC(=O)NC9=O)c8)CC7)CC6)cc5)c4)nc3n21 (stereo partly drawn) [GT-07956, (9R)-N-(1-(4-(4-(4-(3-((2,6-dioxopiperidin-3-yl)amino)benzyl)piperazin-1-yl)piperidin-1-yl)benzyl)-1H-pyrazol-4-yl)-9-methyl-6-oxo-6,7,8,9-tetrahydropyrido[3',2':4,5]pyrrolo[1,2-a]pyrazine-2-carboxamide] | A (A is defined as 0% ≤ substrate protein remaining % ≤ 80%) |  |  | A (A is defined as 0% ≤ substrate protein remaining % ≤ 80%) |
| C[C@@H]1CNC(=O)c2cc3ccc(C(=O)Nc4cnn(Cc5ccc(N6CCC(N7CCN(Cc8cc(N9CCC(=O)NC9=O)ncc8F)CC7)CC6)cc5)c4)nc3n21 [GT-07957, (R)-N-(1-(4-(4-(4-((2-(2,4-dioxotetrahydropyrimidin-1(2H)-yl)-5-fluoropyridin-4-yl)methyl)piperazin-1-yl)piperidin-1-yl)benzyl)-1H-pyrazol-4-yl)-9-methyl-6-oxo-6,7,8,9-tetrahydropyrido[3',2':4,5]pyrrolo[1,2-a]pyrazine-2-carboxamide] | A (A is defined as 0% ≤ substrate protein remaining % ≤ 80%) |  |  | A (A is defined as 0% ≤ substrate protein remaining % ≤ 80%) |
| C[C@@H]1CNC(=O)c2cc3ccc(C(=O)Nc4cnn(Cc5ccc(N6CCC(N7CCN(Cc8ccnc(N9CCC(=O)NC9=O)c8)CC7)CC6)cc5)c4)nc3n21 [GT-07958, (R)-N-(1-(4-(4-(4-((2-(2,4-dioxotetrahydropyrimidin-1(2H)-yl)pyridin-4-yl)methyl)piperazin-1-yl)piperidin-1-yl)benzyl)-1H-pyrazol-4-yl)-9-methyl-6-oxo-6,7,8,9-tetrahydropyrido[3',2':4,5]pyrrolo[1,2-a]pyrazine-2-carboxamide] | A (A is defined as 0% ≤ substrate protein remaining % ≤ 80%) |  |  | A (A is defined as 0% ≤ substrate protein remaining % ≤ 80%) |
| C[C@@H]1CNC(=O)c2cc3ccc(C(=O)Nc4cnn(Cc5ccc(N6CCC(N7CCN(Cc8cncc(N9CCC(=O)NC9=O)c8)CC7)CC6)cc5)c4)nc3n21 [GT-07959, (R)-N-(1-(4-(4-(4-((5-(2,4-dioxotetrahydropyrimidin-1(2H)-yl)pyridin-3-yl)methyl)piperazin-1-yl)piperidin-1-yl)benzyl)-1H-pyrazol-4-yl)-9-methyl-6-oxo-6,7,8,9-tetrahydropyrido[3',2':4,5]pyrrolo[1,2-a]pyrazine-2-carboxamide] | A (A is defined as 0% ≤ substrate protein remaining % ≤ 80%) |  |  | A (A is defined as 0% ≤ substrate protein remaining % ≤ 80%) |
| C[C@@H]1CNC(=O)c2cc3ccc(C(=O)Nc4cnn(Cc5ccc(N6CCC(N7CCN(Cc8cnc(N9CCC(=O)NC9=O)cn8)CC7)CC6)cc5)c4)nc3n21 [GT-07963, (R)-N-(1-(4-(4-(4-((5-(2,4-dioxotetrahydropyrimidin-1(2H)-yl)pyrazin-2-yl)methyl)piperazin-1-yl)piperidin-1-yl)benzyl)-1H-pyrazol-4-yl)-9-methyl-6-oxo-6,7,8,9-tetrahydropyrido[3',2':4,5]pyrrolo[1,2-a]pyrazine-2-carboxamide] | A (A is defined as 0% ≤ substrate protein remaining % ≤ 80%) |  |  | A (A is defined as 0% ≤ substrate protein remaining % ≤ 80%) |
